Measurements as given in patent publication US8058258B2, “Methods for cancer therapy and stem cell modulation” (Agency for Science, Technology and Research, priority 2006, dated 2011).

Columns and labels:
SW480 cells = assay: Cell death by PI staining and flow cytometry; type: cell-based; conditions: colorectal cancer SW480 cells, 5 μM
Protocol: FIG. 3A depicts the detection of cell death of a variety of cancer cells upon exposure to 3-deazaneplanocin (DZNep) compared to untreated controls cells (DMSO=dimethyl sulfoxide). Breast cancer MCF-7 and MB-468 cells, colorectal HCT116, RKO and SW480 cells were treated with 5 μm 3-deazaneplanocin for 48 and 72 h, and cell death was detected by means of propodium iodide (PI) staining and flow cytometry analysis. Shown is the average of three independent experiments.
Cell lines used in these examples were purchased from the American Type Culture Collection (Manassas, Va.). Cells were maintained in DMEM supplemented with 10% fetal bovine serum with glutamine, penicillin, and streptomycin. For drug treatment, cells were seeded the day before the drug treatment. Cells were treated with 5 μM 3-Deazaneplanocin A or 2 μM 5-aza-2′-deoxycytidine (5-AzaC; Sigma) for 72 hours and trichostatin A (TSA; Sigma) at 100 nM for 24 hours. For co-treatment of cells with 5-AzaC and TSA, 5-Aza was added for 48 hours and followed by TSA for 24 hours.
Cells were trypsinised and washed with PBS and fixed in 70% ethanol and processed for propidium iodide staining and FACS analysis. For the caspase 3 activity assay and mitochondrial membrane potential detection, cells were stained with anti-active caspase 3 and JC-1, respectively, according to the manufacturer's instructions (BD Bioscience).
It was observed that 3-deazaneplanocin at 5 μM could induce 25% cell death at 48 hours and 45% of cell death at 72 hours, as determined by propodium iodide (PI) staining and flow cytometry analysis (FIG. 3A).

[1] = test system: histone H3 methylation at lysine 9 (H3-K9); assay: Western blot of histone H3 lysine 9 methylation; type: cell-based, human; conditions: HCT116 or MCF-7 cells, 5 μM, 48 and 72 hours
Protocol: Cell lines used in these examples were purchased from the American Type Culture Collection (Manassas, Va.). Cells were maintained in DMEM supplemented with 10% fetal bovine serum with glutamine, penicillin, and streptomycin. For drug treatment, cells were seeded the day before the drug treatment. Cells were treated with 5 μM 3-Deazaneplanocin A or 2 μM 5-aza-2'-deoxycytidine (5-AzaC; Sigma) for 72 hours and trichostatin A (TSA; Sigma) at 100 nM for 24 hours. For co-treatment of cells with 5-AzaC and TSA, 5-Aza was added for 48 hours and followed by TSA for 24 hours. Cell pellets were first lysed in RadioImmuno Precipitation Assay (RIPA) buffer, consisting of an aqueous solution of 25 mM Tris-HCl pH 7.6, 150 mM NaCl, 1% Nonidet-P 40 (NP-40), 1% sodium deoxycholate and 0.1% sodium dodecylsulfate (SDS), before further sonicated using a tissue homogeniser to release all the proteins. Equal amounts of protein were separated on SDS-polyacrylamide gels and transferred to polyvinylidene difluoride (PVDF) membranes. The blots were probed with antibodies against: EED (07-368), SUZ12 (07-379), SUV39H1 (07-550), BMI1 (05-637), tri-methylated H3-K27 (07-449), tri-methylated H3-K9 (07-442) and Acetyl-Histone H3 (06-599), and were purchased from Upstate. EZH2 (AC22) and Histone H3 (3H1) were from Cell Signaling. […]

SMILES: Nc1nccc2c1ncn2C1C=C(CO)C(O)C1O (centres unmarked) [3-deazaneplanocin, 5-(4-amino-1H-imidazo[4,5-c]pyridin-1-yl)-3-(hydroxymethyl)-3-cyclopentene-1,2-diol]
- cell death (SW480 cells): obvious cell death
- histone H3 methylation at lysine 9 (H3-K9) [1]: not affected
